According to patent US10913744B2, “LRRK2 inhibitors and methods of making and using the same” (Dana-Farber Cancer Institute, Inc., priority 2015, dated 2021):
Where two headings read alike, the source gives them in different places.

Columns and labels:
CK1γ2 = CK1γ2 (Homo sapiens (Human), UniProt P78368); experiment: Dundee profiling
DLK = DLK (Homo sapiens (Human), UniProt Q12852); experiment: KinomeScan; assay type: binding; conditions: 1 uM
PRKR = PRKR (Homo sapiens (Human), UniProt P19525); experiment: KinomeScan; assay type: binding; conditions: 1 uM
CDK11 = CDK11 (Homo sapiens (Human), UniProt Q9BWU1); experiment: KinomeScan; assay type: binding; conditions: 1 uM
[1] = Pharmacokinetic study in mice; assay type: in vivo, mouse; conditions: for C0: back extrapolated conc.; for Vd: read-out: Vss
DDR2 = DDR2 (Homo sapiens (Human), UniProt Q16832); experiment: Dundee profiling
NEK2a = NEK2a (Homo sapiens (Human), UniProt P51955); experiment: Dundee profiling
EGFR (G719S) = EGFR (G719S) (Homo sapiens (Human), UniProt P00533, G719S); experiment: KinomeScan; assay type: binding; conditions: 1 uM
CDK2 = CDK2 (Homo sapiens (Human), UniProt P24941); experiment: KinomeScan; assay type: binding; conditions: 1 uM
CSNK1G1 = CSNK1G1 (Homo sapiens (Human), UniProt Q9HCP0); experiment: KinomeScan; assay type: binding; conditions: 1 uM
AMPK = experiment: Dundee profiling
JNK3 = JNK3 (Homo sapiens (Human), UniProt P53779); experiment: Dundee profiling
CSK = CSK (Homo sapiens (Human), UniProt P41240); experiment: Dundee profiling
MARK2 = MARK2 (Homo sapiens (Human), UniProt Q7KZI7); experiment: Dundee profiling
LOK = LOK (Homo sapiens (Human), UniProt O94804); experiment: KinomeScan; assay type: binding; conditions: 1 uM
PRAK = PRAK (Homo sapiens (Human), UniProt Q8IW41); experiment: Dundee profiling
PIP5K1C = PIP5K1C (Homo sapiens (Human), UniProt O60331); experiment: KinomeScan; assay type: binding; conditions: 1 uM
ACVR2B = ACVR2B (Homo sapiens (Human), UniProt Q13705); experiment: KinomeScan; assay type: binding; conditions: 1 uM
CDK2-Cyclin A = CDK2-Cyclin A (Homo sapiens (Human), UniProt P24941); experiment: Dundee profiling
PKCz = PKCz (Homo sapiens (Human), UniProt Q05513); experiment: Dundee profiling
CSNK1G3 = CSNK1G3 (Homo sapiens (Human), UniProt Q9Y6M4); experiment: KinomeScan; assay type: binding; conditions: 1 uM
p38a MAPK = p38a MAPK (Homo sapiens (Human), UniProt Q16539); experiment: Dundee profiling
MLK3 = MLK3 (Homo sapiens (Human), UniProt Q16584); experiment: KinomeScan; assay type: binding; conditions: 1 uM
TTBK2 = TTBK2 (Homo sapiens (Human), UniProt Q6IQ55); experiment: Dundee profiling
[2] = target: GST-LRRK2[A2016T](1326-2517) (Homo sapiens (Human), UniProt Q5S007, A2016T); experiment: Nictide peptide kinase assay, 100 μM ATP; assay type: biochemical; conditions: 20 μM Nictide
Protocol: (§1) Assay procedures are further discussed in Section 4 herein.
(§2) Samples were washed extensively and the incorporation of [γ-32P]ATP into Nictide was quantified by Cerenkov counting. IC50 values were calculated with GraphPad Prism using non-linear regression analysis.

[3] = target: GST-LRRK2(1,326-2,517) wild-type (Homo sapiens (Human), UniProt Q5S007); experiment: Nictide peptide kinase assay, 100 μM ATP; assay type: biochemical; conditions: 20 μM Nictide
Protocol: as §1, §2

[4] = target: GST-LRRK2[G2019S + A2016T](1,326-2,517) (Homo sapiens (Human), UniProt Q5S007, A2016T/G2019S); experiment: Nictide peptide kinase assay, 100 μM ATP; assay type: biochemical; conditions: 20 μM Nictide
Protocol: as §1, §2

[5] = target: GST-LRRK2[G2019S](1,326-2,527) (Homo sapiens (Human), UniProt Q5S007, G2019S); experiment: Nictide peptide kinase assay, 100 μM ATP; assay type: biochemical; conditions: 20 μM Nictide
Protocol: as §1, §2

EPHB2 = EPHB2 (Homo sapiens (Human), UniProt P29323); experiment: KinomeScan; assay type: binding; conditions: 1 uM
JNK2 = JNK2 (Homo sapiens (Human), UniProt P45984); experiment: Dundee profiling
[6] = read-out: percent remaining enzymatic activity
[7] = read-out: percent remaining enzymatic activity, I1, 1 μM
[8] = read-out: percent remaining enzymatic activity, I10

Chain of JNK3 (P53779 whole entry, species assumed): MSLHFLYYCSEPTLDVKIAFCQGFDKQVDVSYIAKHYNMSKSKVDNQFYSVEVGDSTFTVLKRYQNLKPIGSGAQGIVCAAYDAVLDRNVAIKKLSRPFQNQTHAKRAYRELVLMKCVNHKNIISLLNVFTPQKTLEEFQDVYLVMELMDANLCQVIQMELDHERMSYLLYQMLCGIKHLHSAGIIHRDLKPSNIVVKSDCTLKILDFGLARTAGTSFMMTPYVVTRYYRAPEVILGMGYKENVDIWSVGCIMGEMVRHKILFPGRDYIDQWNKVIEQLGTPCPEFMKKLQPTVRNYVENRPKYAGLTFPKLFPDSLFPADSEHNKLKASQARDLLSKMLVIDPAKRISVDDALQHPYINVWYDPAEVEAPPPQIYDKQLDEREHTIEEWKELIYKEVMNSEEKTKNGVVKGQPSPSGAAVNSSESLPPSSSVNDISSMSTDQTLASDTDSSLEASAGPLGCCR
Chain of PKCz (Q05513 whole entry): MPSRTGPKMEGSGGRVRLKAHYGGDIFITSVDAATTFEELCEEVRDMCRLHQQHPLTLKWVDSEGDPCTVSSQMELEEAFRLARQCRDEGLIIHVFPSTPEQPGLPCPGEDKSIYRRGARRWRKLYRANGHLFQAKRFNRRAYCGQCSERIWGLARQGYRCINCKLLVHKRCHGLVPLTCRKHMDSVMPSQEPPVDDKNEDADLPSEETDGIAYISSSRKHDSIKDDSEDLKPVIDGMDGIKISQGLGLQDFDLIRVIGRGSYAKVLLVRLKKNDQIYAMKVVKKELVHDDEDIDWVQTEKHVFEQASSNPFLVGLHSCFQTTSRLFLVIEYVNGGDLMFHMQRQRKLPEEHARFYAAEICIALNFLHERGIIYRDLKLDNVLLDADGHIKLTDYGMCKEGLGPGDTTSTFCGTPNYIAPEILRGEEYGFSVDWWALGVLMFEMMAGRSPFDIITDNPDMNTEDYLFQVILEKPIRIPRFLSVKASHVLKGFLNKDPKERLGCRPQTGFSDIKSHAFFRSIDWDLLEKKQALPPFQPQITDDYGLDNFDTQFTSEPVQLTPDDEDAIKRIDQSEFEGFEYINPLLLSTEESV
Chain of MARK2 (Q7KZI7 whole entry, species assumed): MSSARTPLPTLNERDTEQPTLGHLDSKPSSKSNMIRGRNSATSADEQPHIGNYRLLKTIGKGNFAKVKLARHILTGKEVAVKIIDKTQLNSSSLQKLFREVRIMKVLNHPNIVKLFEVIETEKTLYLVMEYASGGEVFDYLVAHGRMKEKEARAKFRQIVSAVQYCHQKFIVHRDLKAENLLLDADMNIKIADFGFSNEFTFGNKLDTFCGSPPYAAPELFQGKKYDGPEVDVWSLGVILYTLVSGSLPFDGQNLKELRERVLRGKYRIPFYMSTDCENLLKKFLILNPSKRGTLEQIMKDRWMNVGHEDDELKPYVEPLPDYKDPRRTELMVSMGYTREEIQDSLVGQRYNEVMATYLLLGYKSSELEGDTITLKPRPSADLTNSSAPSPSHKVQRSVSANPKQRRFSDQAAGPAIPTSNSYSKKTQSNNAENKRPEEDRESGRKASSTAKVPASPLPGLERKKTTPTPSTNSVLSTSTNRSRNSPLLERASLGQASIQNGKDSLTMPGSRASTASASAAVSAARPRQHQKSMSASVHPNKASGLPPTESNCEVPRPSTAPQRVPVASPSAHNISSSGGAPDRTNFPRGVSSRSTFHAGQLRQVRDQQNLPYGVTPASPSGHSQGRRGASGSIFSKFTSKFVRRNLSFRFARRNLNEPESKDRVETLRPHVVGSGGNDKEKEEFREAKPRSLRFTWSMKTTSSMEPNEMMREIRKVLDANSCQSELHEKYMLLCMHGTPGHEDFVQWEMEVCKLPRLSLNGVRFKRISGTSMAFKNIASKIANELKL
Chain of PRAK (Q8IW41 whole entry, species assumed): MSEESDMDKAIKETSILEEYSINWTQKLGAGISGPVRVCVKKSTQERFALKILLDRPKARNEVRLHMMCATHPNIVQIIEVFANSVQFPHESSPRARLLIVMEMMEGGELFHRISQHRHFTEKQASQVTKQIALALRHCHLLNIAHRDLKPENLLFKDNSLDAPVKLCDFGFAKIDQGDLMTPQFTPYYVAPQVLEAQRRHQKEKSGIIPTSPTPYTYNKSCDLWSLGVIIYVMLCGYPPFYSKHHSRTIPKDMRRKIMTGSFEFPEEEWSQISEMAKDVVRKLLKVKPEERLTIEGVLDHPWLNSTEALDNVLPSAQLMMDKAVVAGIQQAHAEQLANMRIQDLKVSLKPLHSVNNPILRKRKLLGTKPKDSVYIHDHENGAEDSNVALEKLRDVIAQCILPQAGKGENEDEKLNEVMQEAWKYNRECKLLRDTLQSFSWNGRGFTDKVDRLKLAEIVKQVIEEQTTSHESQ
Chain of TTBK2 (Q6IQ55 whole entry, species assumed): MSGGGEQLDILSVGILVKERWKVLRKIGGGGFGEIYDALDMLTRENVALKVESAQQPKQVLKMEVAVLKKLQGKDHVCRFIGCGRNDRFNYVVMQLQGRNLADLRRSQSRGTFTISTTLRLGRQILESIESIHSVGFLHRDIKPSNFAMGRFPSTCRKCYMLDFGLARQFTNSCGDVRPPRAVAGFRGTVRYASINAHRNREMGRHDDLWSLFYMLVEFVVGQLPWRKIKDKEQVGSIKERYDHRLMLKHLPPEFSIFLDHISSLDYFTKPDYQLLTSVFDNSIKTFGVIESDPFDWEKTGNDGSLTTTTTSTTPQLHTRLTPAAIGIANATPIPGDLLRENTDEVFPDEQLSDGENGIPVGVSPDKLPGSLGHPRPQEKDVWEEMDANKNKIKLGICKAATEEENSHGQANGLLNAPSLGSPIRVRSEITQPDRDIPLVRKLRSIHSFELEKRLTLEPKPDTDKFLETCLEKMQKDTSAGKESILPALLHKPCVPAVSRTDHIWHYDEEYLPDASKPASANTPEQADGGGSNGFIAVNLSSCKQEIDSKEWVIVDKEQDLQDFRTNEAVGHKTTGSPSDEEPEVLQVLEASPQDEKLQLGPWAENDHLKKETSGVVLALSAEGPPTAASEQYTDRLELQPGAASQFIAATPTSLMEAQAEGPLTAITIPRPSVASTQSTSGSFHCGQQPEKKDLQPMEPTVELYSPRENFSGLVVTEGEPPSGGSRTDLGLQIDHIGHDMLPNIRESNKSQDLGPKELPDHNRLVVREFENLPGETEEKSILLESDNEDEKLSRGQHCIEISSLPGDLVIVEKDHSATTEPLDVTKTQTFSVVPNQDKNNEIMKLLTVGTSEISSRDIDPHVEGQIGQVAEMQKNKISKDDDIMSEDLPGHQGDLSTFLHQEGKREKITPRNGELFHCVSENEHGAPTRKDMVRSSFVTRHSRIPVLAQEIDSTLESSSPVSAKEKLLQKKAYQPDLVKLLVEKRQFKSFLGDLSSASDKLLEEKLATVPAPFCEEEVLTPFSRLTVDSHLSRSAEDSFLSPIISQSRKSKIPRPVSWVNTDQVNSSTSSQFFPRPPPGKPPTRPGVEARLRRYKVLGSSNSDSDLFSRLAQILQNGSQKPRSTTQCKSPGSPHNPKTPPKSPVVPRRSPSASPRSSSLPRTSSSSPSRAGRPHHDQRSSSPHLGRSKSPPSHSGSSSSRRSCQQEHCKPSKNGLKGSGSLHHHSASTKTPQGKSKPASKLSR
Chain of CK1γ2 (P78368 whole entry): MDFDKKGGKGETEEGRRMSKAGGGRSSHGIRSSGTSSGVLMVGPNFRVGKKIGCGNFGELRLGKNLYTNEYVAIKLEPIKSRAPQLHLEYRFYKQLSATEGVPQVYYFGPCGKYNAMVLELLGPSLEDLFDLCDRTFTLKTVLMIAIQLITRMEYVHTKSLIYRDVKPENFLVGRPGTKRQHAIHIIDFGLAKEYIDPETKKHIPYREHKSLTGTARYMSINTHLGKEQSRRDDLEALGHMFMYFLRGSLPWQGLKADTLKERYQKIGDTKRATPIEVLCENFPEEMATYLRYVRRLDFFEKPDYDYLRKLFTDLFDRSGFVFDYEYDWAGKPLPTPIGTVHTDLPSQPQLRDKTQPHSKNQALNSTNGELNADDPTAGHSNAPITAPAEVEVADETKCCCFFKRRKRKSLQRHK
Chain of p38a MAPK (Q16539 whole entry): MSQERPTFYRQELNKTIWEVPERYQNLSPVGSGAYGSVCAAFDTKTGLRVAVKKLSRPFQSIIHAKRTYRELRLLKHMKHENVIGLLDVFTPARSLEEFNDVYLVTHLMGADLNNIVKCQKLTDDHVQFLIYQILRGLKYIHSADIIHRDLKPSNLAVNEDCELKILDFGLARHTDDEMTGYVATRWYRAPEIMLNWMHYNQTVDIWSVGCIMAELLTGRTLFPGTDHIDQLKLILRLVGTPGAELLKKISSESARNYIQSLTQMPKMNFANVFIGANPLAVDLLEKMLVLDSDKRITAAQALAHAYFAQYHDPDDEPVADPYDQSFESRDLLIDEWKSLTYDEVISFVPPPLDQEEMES
Chain of JNK2 (P45984 whole entry, species assumed): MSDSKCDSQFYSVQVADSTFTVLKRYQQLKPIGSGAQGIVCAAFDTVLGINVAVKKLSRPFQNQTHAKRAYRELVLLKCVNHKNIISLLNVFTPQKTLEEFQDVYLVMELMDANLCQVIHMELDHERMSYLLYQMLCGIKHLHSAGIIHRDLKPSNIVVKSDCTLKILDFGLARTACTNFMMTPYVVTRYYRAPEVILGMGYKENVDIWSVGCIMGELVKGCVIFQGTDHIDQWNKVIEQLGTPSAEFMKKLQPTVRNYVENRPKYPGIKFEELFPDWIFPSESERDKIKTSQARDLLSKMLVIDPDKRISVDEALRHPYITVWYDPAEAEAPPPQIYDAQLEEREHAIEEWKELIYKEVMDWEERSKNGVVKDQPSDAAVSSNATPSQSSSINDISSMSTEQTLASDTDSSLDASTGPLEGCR

In the case of `CNc1nc(Nc2ccc(C(=O)N3CCOCC3)cc2OC)nc2[nH]cc(Cl)c12` [Compound 18, (4-((5-chloro-4-(methylamino)-7H-pyrrolo[2,3-d]pyrimidin-2-yl)amino)-3-methoxyphenyl)(morpholino)methanone], the “percent remaining enzymatic activity” value (CK1γ2; I10) is reported as 45%, the remaining activity at 1 µM (CK1γ2; [6]) is reported as 100% and the KinomeScan value (DLK) is reported as 89. The KinomeScan value (PRKR) was 96, the KinomeScan value (CDK11) was 63 and the AUClast ([1]; Brain, i.v., 2 mg/kg) was 239.31 ng·h/mL. The AUClast ([1]; Plasma, i.v., 2 mg/kg) was 532.67 ng·h/mL, the T1/2 ([1]; Plasma, i.v., 2 mg/kg) was 39.6 min and the AUClast ([1]; Plasma, p.o., 10 mg/kg) was 3094.58 ng·h/mL. For the same molecule, the Kp ([1]; mouse, brain/plasma, iv, 2 mg/kg i.v., from AUClast, read-out: brain/plasma concentration ratio) was 0.45, the AUC(0-inf) ([1]; mouse, iv, Brain, 2 mg/kg) was 246 ng·h/mL and the AUC(0-t) ([1]; mouse, iv, Brain, 2 mg/kg) was 239 ng·h/mL. It also gave a clearance ([1]; mouse, iv, Brain, 2 mg/kg) of 135 mL/min/kg, a half-life ([1]; mouse, iv, Brain, 2 mg/kg) of 13.8 min and a C0 ([1]; mouse, iv, Brain, 2 mg/kg) of 1340 ng/mL. The Vd ([1]; mouse, iv, Brain, i.v., 2 mg/kg) was 1.7 L/kg, the AUC(0-inf) ([1]; mouse, iv, Plasma, 2 mg/kg) was 536 ng·h/mL and the AUC(0-t) ([1]; mouse, iv, Plasma, 2 mg/kg) was 533 ng·h/mL. For the same molecule, the clearance ([1]; mouse, iv, Plasma, 2 mg/kg) was 62.2 mL/min/kg, the half-life ([1]; mouse, iv, Plasma, 2 mg/kg) was 39.6 min and the C0 ([1]; mouse, iv, Plasma, 2 mg/kg) was 1600 ng/mL. The Vd ([1]; mouse, iv, Plasma, i.v., 2 mg/kg) was 1.73 L/kg, the bioavailability ([1]; mouse, oral, Plasma, 10 mg/kg p.o. vs 2 mg/kg i.v., from AUClast, read-out: % F (oral bioavailability)) was 116% and the AUC(0-inf) ([1]; mouse, po, Brain, 10 mg/kg) was 762 ng·h/mL. For the same molecule, the AUC(0-t) ([1]; mouse, po, Brain, 10 mg/kg) was 688 ng·h/mL, the Cmax ([1]; mouse, po, Brain, 10 mg/kg) was 247 ng/mL and the Tmax ([1]; mouse, po, Brain, 10 mg/kg) was 60 min. The AUC(0-inf) ([1]; mouse, po, Plasma, 10 mg/kg) was 3870 ng·h/mL, the AUC(0-t) ([1]; mouse, po, Plasma, 10 mg/kg) was 3090 ng·h/mL and the Cmax ([1]; mouse, po, Plasma, 10 mg/kg) was 803 ng/mL. The Tmax ([1]; mouse, po, Plasma, 10 mg/kg) was 60 min, the remaining activity at 1 µM (DDR2; [7]) was 98% and the remaining activity at 1 µM (DDR2; [8]) was 93%. It also gave a remaining activity at 1 µM (NEK2a; [7]) of 97%, a remaining activity at 1 µM (NEK2a; [8]) of 103% and a KinomeScan value (EGFR (G719S)) of 88. The KinomeScan value (CDK2) was 95, the KinomeScan value (CSNK1G1) was 97 and the “percent remaining enzymatic activity” value (AMPK; I1, 1 μM) was 112%. For the same molecule, the “percent remaining enzymatic activity” value (AMPK; I10) was 103%, the “percent remaining enzymatic activity” value (JNK3; I10) was 9% and the remaining activity at 1 µM (JNK3; [6]) was 29%. The “percent remaining enzymatic activity” value (CSK; I10) was 92%, the remaining activity at 1 µM (CSK; [6]) was 89% and the remaining activity at 1 µM (MARK2; [7]) was 101%. For the same molecule, the remaining activity at 1 µM (MARK2; [8]) was 82%, the KinomeScan value (LOK) was 100 and the remaining activity at 1 µM (PRAK; [7]) was 43%. For the same molecule, the remaining activity at 1 µM (PRAK; [8]) was 6%, the KinomeScan value (PIP5K1C) was 100 and the KinomeScan value (ACVR2B) was 100. The “percent remaining enzymatic activity” value (CDK2-Cyclin A; I10) was 67%, the remaining activity at 1 µM (CDK2-Cyclin A; [6]) was 102% and the remaining activity at 1 µM (PKCz; [7]) was 76%. The remaining activity at 1 µM (PKCz; [8]) was 94%, the KinomeScan value (CSNK1G3) was 100 and the “percent remaining enzymatic activity” value (p38a MAPK; I10) was 104%. The remaining activity at 1 µM (p38a MAPK; [6]) was 90%, the KinomeScan value (MLK3) was 100 and the “percent remaining enzymatic activity” value (TTBK2; I10) was 90%. For the same molecule, the remaining activity at 1 µM (TTBK2; [6]) was 105%, the IC50 [2] was 47.7 nM and the IC50 [3] was 6.6 nM. For the same molecule, the IC50 [4] was 19.8 nM, the IC50 [5] was 2.2 nM and the KinomeScan value (EPHB2) was 98. For the same molecule, the “percent remaining enzymatic activity” value (JNK2; I10) was 4% and the remaining activity at 1 µM (JNK2; [6]) was 27%.
